Patent US6544989B2, “Benzazoles: benzoxazole, benzthiazole and benzimidazole derivatives” (Syngenta Limited, priority 1998, dated 2003)

How the values were obtained:
[1] = tested on: Pyricularia oryzae; assay type: in vivo; conditions: METHOD 2 (unbanded)
[2] = tested on: Erysiphe graminis f.sp. tritici; test: Fungicidal test, Erysiphe graminis f.sp. tritici (ERYSGT) on wheat, PRCO; assay type: in vivo; conditions: 1 d Prot/Foir; METHOD 2 (unbanded)
[3] = tested on: Puccinia recondita; test: Fungicidal test, Puccinia recondita (PUCCRT) on wheat, PRCO; assay type: in vivo; conditions: METHOD 2 (unbanded)
[4] = tested on: Uncinula necator; test: Fungicidal test, Uncinula necator (UNCINE) on vines, PRCO; assay type: in vivo; conditions: METHOD 2 (unbanded)
[5] = tested on: Septoria nodorum; test: Fungicidal test, Septoria nodorum (LEPTNO) on wheat, PRCO; assay type: in vivo; conditions: METHOD 2 (unbanded)
[6] = tested on: Musca domestica; conditions: 500 ppm by weight; knockdown assessed 15 minutes after treatment
[7] = tested on: Venturia inaequalis; test: Fungicidal test, Venturia inaequalis (VENTIN) on apples, PRCO; assay type: in vivo; conditions: METHOD 2 (unbanded)
[8] = tested on: Phytophthora infestans lycopersici; assay type: in vivo; conditions: METHOD 2 (unbanded)
[9] = tested on: Meloidogyne incognita; test: Nematode test, J2 infective juveniles of Meloidogyne incognita, mortality; conditions: 12.5 ppm; J2 infective juveniles suspended in solution; mortality after three days
[10] = tested on: Plasmopara viticola; test: Fungicidal test, Plasmopara viticola (PLASVI) on vines, PRCO; assay type: in vivo; conditions: METHOD 2 (unbanded)

| SMILES | PYRIOR 1 d Prot/Foir PRCO [1] | ERYSGT 1 d Prot/Foir PRCO [2] | PUCCRT 1 d Prot/Foir PRCO [3] | UNCINE 1 d Prot/Foir PRCO [4] | LEPTNO 1 d Prot/Foir PRCO [5] | MUSCDO AC = Musca domestica (knockdown), score [6] | VENTIN 1 d Prot/Foir PRCO [7] | PHYTIN 1 d Prot/Foir PRCO [8] | MELGIN = Meloidogyne incognita, grading of mortality (score) [9] | PLASVI 1 d Prot/Foir PRCO [10] |
| --- | --- | --- | --- | --- | --- | --- | --- | --- | --- | --- |
| Cc1nsc(NC(=O)Cc2ccc3oc(C(F)(F)C(F)(F)C(F)(F)F)nc3c2)c1Cl [80(A3)] | 91 | 99 | 100 | 100 | −2 | 0 (0 indicates less than 40% mortality) | −8 | 45 | 0 (0 indicates less than 40% mortality) | – |
| Cc1nsc(NC(=O)Cc2ccc3oc(C(C)(C)CCl)nc3c2)c1Cl [98(A3)] | 81 | 98 | 98 | 100 | 30 | 5 (5 indicates 40-79% mortality) | 96 | 100 | 0 (0 indicates less than 40% mortality) | 99 |
| Cc1nsc(NC(=O)Cc2ccc3oc(CC#N)nc3c2)c1Cl [113(A3)] | 28 | 5 | 41 | 21 | 20 | 0 (0 indicates less than 40% mortality) | 8 | 38 | 0 (0 indicates less than 40% mortality) | – |
| CSCCc1nc2cc(CC(=O)Nc3snc(C)c3Cl)ccc2o1 [172(A3)] | 19 | 40 | 96 | 36 | 10 | 5 (5 indicates 40-79% mortality) | 69 | 100 | 5 (5 indicates 40-79% mortality) | 44 |
| Cc1nsc(NC(=O)Cc2ccc3oc(NC(C)(C)C)nc3c2)c1Cl [183(A3)] | 99 | 99 | 99 | 98 | 19 | 0 (0 indicates less than 40% mortality) | 98 | 100 | 0 (0 indicates less than 40% mortality) | – |
| Cc1nsc(NC(=O)Cc2ccc3oc(N4CCOCC4)nc3c2)c1Cl [191(A3)] | 92 | 94 | 99 | 100 | 36 | 5 (5 indicates 40-79% mortality) | 10 | 92 | 9 (9 indicates 80-100% mortality) | – |
| COc1nc2cc(CC(=O)Nc3snc(C)c3Cl)ccc2o1 [203(A3)] | 96 | 98 | 100 | 69 | −3 | 9 (9 indicates 80-100% mortality) | 65 | 85 | 0 (0 indicates less than 40% mortality) | – |
| CCOc1nc2cc(CC(=O)Nc3snc(C)c3Cl)ccc2o1 [204(A3)] | 96 | 87 | 99 | 81 | 67 | 9 (9 indicates 80-100% mortality) | 22 | 100 | 0 (0 indicates less than 40% mortality) | – |
| COC(=O)CSc1nc2cc(CC(=O)Nc3snc(C)c3Cl)ccc2o1 [229(A3)] | 55 | 21 | 6 | −9 | 2 | 0 (0 indicates less than 40% mortality) | 10 | 92 | 0 (0 indicates less than 40% mortality) | – |
| Cc1nsc(NC(=O)Cc2ccc3oc(-c4sccc4Cl)nc3c2)c1Cl [331(A3)] | 81 | 33 | 95 | 76 | 17 | 0 (0 indicates less than 40% mortality) | 5 | – | – | 49 |
